Results published in patent publication US11160886B2, “Method for labeling of sensitive and thermosensitive targeting biomolecules with technetium based compounds” (BRACCO IMAGING SPA, priority 2016, dated 2021).

Columns and labels:
[1] = Biodistribution in healthy rats; type: in vivo, Sprague-Dawley rats; conditions: for Pharmacokinetic profile: blood clearance: healthy animals, within the first 60 min p.i.; for Biodistribution: Blood / Biodistribution: Brain / Biodistribution: Heart / Biodistribution: Intestine / Biodistribution: Kidneys / Biodistribution: Liver / Biodistribution: Lungs / Biodistribution: Muscle / Biodistribution: Spleen / Biodistribution: Stomach / Biodistribution: Urine: healthy rats
Procedure: Before injection, ^99mTc complexes were purified using a reversed-phase C18 Sep-Pack cartridge to remove the excess of unlabeled ligands. After purification, the activity recovered was further diluted with PBS to obtain a final solution that is <0.5% in EtOH content. The RCP and the stability of the purified complexes were evaluated prior to in vivo administration and for the succeeding 18 h.
Biodistribution in healthy rats. Biodistribution in healthy rats was performed on complex 1, complex 2 and complex 9 in order to evaluate their pharmacokinetic profile and elimination pathways as well as their resistance to in vivo metabolism. Female Sprague-Dawley rats weighing 180-200 g were anesthetized with an intramuscular injection of a mixture of Zoletil (40 mg/kg) and xylazine (2 mg/kg). A jugular vein was surgically exposed and 100 μl (300-370 kBq) of the solution containing the selected [^99mTc(N)(PNP3OH)]-compound was injected. The rats (n=3) were scarified by cervical dislocation at different times after injection. The blood was withdrawn from the heart with a syringe immediately after death and quantified. Organs were excised, rinsed in saline, weighed, and the activity was counted in a Nal well counter.

[2] = Sera and homogenates stability; type: in vitro ADME, human and rat; conditions: human and rat sera, 37° C., 3 h
Procedure: Sera and Homogenates Stability.
The in vitro stability of complex 1, complex 2, complex 9 and complex 11 was evaluated by monitoring the RCP at different time points using the following procedures. In a propylene test tube 50 μl of purified [^99mTc(N)(PNP3OH)]-compound were added to: a) 450 μl of human serum, b) 450 μl of rat serum, c) 450 μl of homogenate of rat liver and d) 450 μl of homogenate of rat kidneys. The resulting mixture was incubated at 37° C. for 4 h.
The sample was loaded onto a cartridge, preconditioned with MeOH (1 ml) and equilibrated with water (1 ml), and rinsed with MeOH 5% (3 ml). The activity was eluted with a mixture of EtOH/saline 60% (1 ml). Each fraction was collected and the activity measured using a counter (Cobra II, Packard) to determinate the elution profile. 80% of the loaded activity was collected in the elution fraction. An aliquot of this solution (100 μl) was analyzed by HPLC to assess the degradation of the ^99mTc(N)-complexes (FIG. 11).

[3] = Stability in the reaction solution as function of pH (FIG. 5); type: physicochemical
Procedure: The variation of (%)RCY of complex 1 and complex 2 over the time (30 min vs 18 h), at different conditions, is shown in FIG. 5. […] Alternatively, free PNP3OH was directly used.

[4] = Challenge reactions (transchelation) with excess Cys, GSH or EDTA, RCP by HPLC; type: physicochemical; conditions: Cys 10 mM; for % RCP after incubation with excess Cys: 37° C.
Procedure: The transchelation studies were performed for some compounds monitoring by HPLC the radiochemical purity (RCP) of the complexes in presence of an excess of exchanging ligands over the time. The experiments were performed in triplicate.
Challenge experiments were carried out on the purified [^99mTc(N)(PNP3OH)]-labeled small size compounds (complex 1, complex 2, complex 9 and complex 10) using an excess of glutathione (GSH) or Cys. An aliquot (50 μl) of an aqueous stock solution of cysteine hydrochloride (10 mM; 1 mM) was added to a propylene test tube containing PB (250 μl, 0.2 M; pH 7.4), water (100 μl) and the selected [^99mTc(N)(PNP3OH)]-compound (100 μl). The mixture was vortexed and incubated at 37° C. for 24 h. A control reaction containing an equal volume of water, instead of cysteine hydrochloride, was studied in parallel. At 30 min, 1, 3 and 24 h, aliquots of the reaction mixture were withdrawn and analyzed by HPLC chromatography. A similar procedure was applied using GSH (50 μl, 10 mM) as challenge ligand.
For [^99mTc(N)(PNP3OH)(Cys-Gly-Lys-Gly-ApoMb)]^+ (“Cys-Gly-Lys-Gly” disclosed as SEQ ID NO: 1) additional experiments were conducted using EDTA (50 μl, 10 mM) as exchanging ligand.

## CC(=O)NC1C[S][99Tc](#[N])[O]C1=O.COCCN(CCP(CO)CO)CCP(CO)CO [Complex 1, [^99mTc(N)(PNP3OH)(CysNAc)]]
[1]
  Pharmacokinetic profile: blood clearance: rapid blood clearance
[1]; 2 min
  Biodistribution: Blood: 1.68 ± 0.02 % IA/g
  Biodistribution: Brain: 0.10 ± 0.01 % IA/g
  Biodistribution: Heart: 0.54 ± 0.09 % IA/g
  Biodistribution: Intestine: 0.70 ± 0.02 % IA/g
  Biodistribution: Kidneys: 4.73 ± 0.37 % IA/g
  Biodistribution: Liver: 1.73 ± 0.02 % IA/g
  Biodistribution: Lungs: 1.11 ± 0.22 % IA/g
  Biodistribution: Muscle: 0.32 ± 0.02 % IA/g
  Biodistribution: Spleen: 0.40 ± 0.07 % IA/g
  Biodistribution: Stomach: 0.39 ± 0.05 % IA/g
[1]; 10 min
  Biodistribution: Blood: 0.96 ± 0.03 % IA/g
  Biodistribution: Brain: 0.05 ± 0.01 % IA/g
  Biodistribution: Heart: 0.27 ± 0.01 % IA/g
  Biodistribution: Intestine: 2.85 ± 0.67 % IA/g
  Biodistribution: Kidneys: 4.07 ± 0.67 % IA/g
  Biodistribution: Liver: 2.27 ± 0.01 % IA/g
  Biodistribution: Lungs: 0.68 ± 0.03 % IA/g
  Biodistribution: Muscle: 0.14 ± 0.01 % IA/g
  Biodistribution: Spleen: 0.26 ± 0.00 % IA/g
  Biodistribution: Stomach: 0.41 ± 0.09 % IA/g
  Biodistribution: Urine: 31.28 ± 4.07 % IA/g
[1]; 30 min
  Biodistribution: Blood: 0.43 ± 0.09 % IA/g
  Biodistribution: Brain: 0.04 ± 0.01 % IA/g
  Biodistribution: Heart: 0.17 ± 0.07 % IA/g
  Biodistribution: Intestine: 5.46 ± 3.28 % IA/g
  Biodistribution: Kidneys: 2.47 ± 0.04 % IA/g
  Biodistribution: Liver: 1.28 ± 0.03 % IA/g
  Biodistribution: Lungs: 0.38 ± 0.15 % IA/g
  Biodistribution: Muscle: 0.11 ± 0.00 % IA/g
  Biodistribution: Spleen: 0.10 ± 0.01 % IA/g
  Biodistribution: Stomach: 0.35 ± 0.02 % IA/g
[1]; 60 min
  Biodistribution: Blood: 0.11 ± 0.00 % IA/g
  Biodistribution: Brain: 0.01 ± 0.00 % IA/g
  Biodistribution: Heart: 0.06 ± 0.01 % IA/g
  Biodistribution: Intestine: 10.07 ± 0.26 % IA/g
  Biodistribution: Kidneys: 1.15 ± 0.12 % IA/g
  Biodistribution: Liver: 0.99 ± 0.13 % IA/g
  Biodistribution: Lungs: 0.14 ± 0.01 % IA/g
  Biodistribution: Muscle: 0.08 ± 0.03 % IA/g
  Biodistribution: Spleen: 0.10 ± 0.01 % IA/g
  Biodistribution: Stomach: 0.24 ± 0.12 % IA/g
  Biodistribution: Urine: 58.89 ± 2.27 % IA/g
[1]; 120 min
  Biodistribution: Blood: 0.06 ± 0.01 % IA/g
  Biodistribution: Brain: 0.01 ± 0.00 % IA/g
  Biodistribution: Heart: 0.02 ± 0.00 % IA/g
  Biodistribution: Intestine: 0.57 ± 0.05 % IA/g
  Biodistribution: Kidneys: 0.77 ± 0.26 % IA/g
  Biodistribution: Liver: 0.54 ± 0.05 % IA/g
  Biodistribution: Lungs: 0.10 ± 0.01 % IA/g
  Biodistribution: Muscle: 0.02 ± 0.00 % IA/g
  Biodistribution: Spleen: 0.09 ± 0.01 % IA/g
  Biodistribution: Stomach: 0.25 ± 0.06 % IA/g
  Biodistribution: Urine: 55.74 ± 14.87 % IA/g
[2]
  Sera stability: high sera stability
[3]; pH 7.4
  Stability in the reaction solution: stable within 18 h
[3]; pH 9
  Stability in the reaction solution: a progressive degradation was observed

## CCOC(=O)C(N)C[S][99Tc+]#[N].COCCN(CCP(CO)CO)CCP(CO)CO [Complex 2, [^99mTc(N)(PNP3OH)(CysOEt)]^+]
[1]
  Pharmacokinetic profile: blood clearance: rapid blood clearance
[1]; 2 min
  Biodistribution: Blood: 0.99 ± 0.18 % IA/g
  Biodistribution: Brain: 0.05 ± 0.00 % IA/g
  Biodistribution: Heart: 0.41 ± 0.07 % IA/g
  Biodistribution: Intestine: 0.39 ± 0.09 % IA/g
  Biodistribution: Kidneys: 5.38 ± 0.22 % IA/g
  Biodistribution: Liver: 0.99 ± 0.28 % IA/g
  Biodistribution: Lungs: 0.87 ± 0.17 % IA/g
  Biodistribution: Muscle: 0.19 ± 0.07 % IA/g
  Biodistribution: Spleen: 0.23 ± 0.01 % IA/g
  Biodistribution: Stomach: 0.49 ± 0.05 % IA/g
  Biodistribution: Urine: 16.32 ± 0.00 % IA/g
[1]; 10 min
  Biodistribution: Blood: 0.62 ± 0.11 % IA/g
  Biodistribution: Brain: 0.07 ± 0.01 % IA/g
  Biodistribution: Heart: 0.26 ± 0.01 % IA/g
  Biodistribution: Intestine: 1.35 ± 0.19 % IA/g
  Biodistribution: Kidneys: 6.20 ± 0.51 % IA/g
  Biodistribution: Liver: 1.56 ± 0.06 % IA/g
  Biodistribution: Lungs: 0.50 ± 0.04 % IA/g
  Biodistribution: Muscle: 0.17 ± 0.04 % IA/g
  Biodistribution: Spleen: 0.17 ± 0.00 % IA/g
  Biodistribution: Stomach: 0.44 ± 0.08 % IA/g
  Biodistribution: Urine: 25.65 ± 16.29 % IA/g
[1]; 30 min
  Biodistribution: Blood: 0.62 ± 0.06 % IA/g
  Biodistribution: Brain: 0.05 ± 0.03 % IA/g
  Biodistribution: Heart: 0.23 ± 0.02 % IA/g
  Biodistribution: Intestine: 1.26 ± 0.42 % IA/g
  Biodistribution: Kidneys: 6.43 ± 2.44 % IA/g
  Biodistribution: Liver: 1.85 ± 0.13 % IA/g
  Biodistribution: Lungs: 0.43 ± 0.00 % IA/g
  Biodistribution: Muscle: 0.21 ± 0.01 % IA/g
  Biodistribution: Spleen: 0.15 ± 0.00 % IA/g
  Biodistribution: Stomach: 0.32 ± 0.02 % IA/g
  Biodistribution: Urine: 17.06 ± 0.00 % IA/g
[1]; 60 min
  Biodistribution: Blood: 0.24 ± 0.06 % IA/g
  Biodistribution: Brain: 0.02 ± 0.01 % IA/g
  Biodistribution: Heart: 0.09 ± 0.03 % IA/g
  Biodistribution: Intestine: 2.92 ± 0.26 % IA/g
  Biodistribution: Kidneys: 2.63 ± 1.43 % IA/g
  Biodistribution: Liver: 1.83 ± 0.05 % IA/g
  Biodistribution: Lungs: 0.19 ± 0.05 % IA/g
  Biodistribution: Muscle: 0.07 ± 0.04 % IA/g
  Biodistribution: Spleen: 0.11 ± 0.05 % IA/g
  Biodistribution: Stomach: 0.20 ± 0.12 % IA/g
  Biodistribution: Urine: 40.14 ± 0.00 % IA/g
[1]; 120 min
  Biodistribution: Blood: 0.09 ± 0.09 % IA/g
  Biodistribution: Brain: 0.01 ± 0.01 % IA/g
  Biodistribution: Heart: 0.06 ± 0.06 % IA/g
  Biodistribution: Intestine: 6.23 ± 0.35 % IA/g
  Biodistribution: Kidneys: 1.67 ± 1.04 % IA/g
  Biodistribution: Liver: 0.29 ± 0.77 % IA/g
  Biodistribution: Lungs: 0.15 ± 0.14 % IA/g
  Biodistribution: Muscle: 0.04 ± 0.04 % IA/g
  Biodistribution: Spleen: 0.07 ± 0.04 % IA/g
  Biodistribution: Stomach: 0.31 ± 0.16 % IA/g
  Biodistribution: Urine: 20.10 ± 6.28 % IA/g
[4]; 3 h
  % RCP after incubation with excess Cys: 65.93%
[4]; 24 h
  % RCP after incubation with excess Cys: 23.32%
[4]; versus complex 1 and complex 11
  Stability toward Cys transchelation relative to neutral complexes: higher stability toward Cys transchelation
[2]
  Sera stability: high sera stability
[3]; pH 7.4
  Stability in the reaction solution: stable within 18 h
[3]; pH 9
  Stability in the reaction solution: a progressive degradation was observed
